Results on nine compounds are retold here after patent publication US5948784A, “Quinazoline derivatives” (Kyowa Hakko Kogyo Co., Ltd., priority 1994, dated 1999).

Structures are written as SMILES.

Series [1] relates to [^3 H]-adenosine uptake in erythrocytes. Description: Inhibitory Effect on [^3 H]-Adenosine Uptake (washed erythrocytes). The format is cell-based, human (healthy male adult). As to conditions: Homo sapiens; erythrocyte suspension, 1 hour preincubation at room temperature, 10 seconds uptake; read-out: [^3 H]-Adenosine Uptake Inhibition IC50. The protocol: A blood sample was obtained from a healthy adult under 40 years of age by brachial venipuncture using a syringe containing sodium citrate and subjected to centrifugation to obtain washed erythrocytes. […] Ten seconds later, 200 μl of a dilazep solution (1 mg/ml) was added to stop the reaction. […] The supernatant was removed and the erythrocyte fraction was separated. […] The concentration of the test compound which inhibits the [^3 H]-adenosineuptake by 50% (IC50) was calculated.

Series [2] has as its target T1, [^3 H]-Nitrobenzylthioinosine (NBI) binding, cerebral cortex homogenate (Cavia porcellus, UniProt H0V4R7).
T1 construct: The cerebral cortex of a male guinea pig of Hartley strain was homogenized; from tissue; host or cells: cerebral cortex of male Hartley guinea pig (washed membrane precipitate)
T1 sequence (H0V4R7 1-461): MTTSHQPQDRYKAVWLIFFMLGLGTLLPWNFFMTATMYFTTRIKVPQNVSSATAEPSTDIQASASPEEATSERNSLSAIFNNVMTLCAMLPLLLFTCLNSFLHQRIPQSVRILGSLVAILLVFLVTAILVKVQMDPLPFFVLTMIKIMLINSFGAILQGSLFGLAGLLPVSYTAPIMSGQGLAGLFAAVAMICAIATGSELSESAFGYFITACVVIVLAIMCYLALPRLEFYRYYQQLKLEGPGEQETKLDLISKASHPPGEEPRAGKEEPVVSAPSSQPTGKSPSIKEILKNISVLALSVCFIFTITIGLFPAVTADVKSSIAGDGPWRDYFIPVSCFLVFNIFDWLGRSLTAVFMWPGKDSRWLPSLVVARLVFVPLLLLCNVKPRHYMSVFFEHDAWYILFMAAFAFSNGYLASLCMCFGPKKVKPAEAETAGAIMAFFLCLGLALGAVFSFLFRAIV
Description: Inhibitory Effect on [^3 H]-Nitrobenzylthioinosine (NBI) Binding. More on the design: species or system guinea pig (male, Hartley strain). To be noted: guinea pig cerebral cortex, 1.5 nM [^3 H]-NBI, 25° C., 30 minutes, Cheng-Prusoff. The protocol: The cerebral cortex of a male guinea pig of Hartley strain was homogenized with an ice-cooled 50 mM tris-HCl buffer (pH 7.4) in an amount of 25 times (w/v) that of the tissue. The homogenate was centrifuged (30,000×g, 4° C., 20 mins.), and the supernatant was discarded. To the precipitate was added the same amount of the buffer, followed by homogenization and then centrifugation in the same manner as above. The obtained precipitate was suspended in 20 times as much buffer as the precipitate to prepare a suspension for testing. To a DMSO solution of a test compound were added 1.5 nM of [^3 H]-NBI and 5 mg (wet basis) of the tissue homogenate, and the mixture was allowed to stand at 25° C. for 30 minutes. To the mixture was added 4 ml of an ice-cooled buffer, followed by rapid filtration with suction through a glass filter (GF/C, produced by Whatman Ltd.) or a Ready filter (produced by Beckman Co.) to stop the reaction. The filter was transferred to a scintillation vial, and after drying, Scintisol EX-H was added thereto. The radioactivity was measured with a liquid scintillation counter. The binding inhibitory activity was expressed in terms of an inhibition constant (Ki value) as calculated according to Cheng-Prusoff's formula.

Series [3] concerns Masugi Nephritis in ddY-strain male mice. Description: Effect on Increase of Albumin Excretion in Masugi Nephritis. The format is in vivo, mouse. The protocol:
Mouse nephrotoxin (hereinafter referred to as NT) was prepared according to the method of Ito, et al. [The Japanese Journal of Nephrology, 23, 25-36 (1981)]. That is, glomerular basement membrane (hereinafter referred to as GBM) was isolated from mouse kidney and digested with trypsin (Sigma). The digested GBM was subjected to ultracentrifugation under cooling, and the supernatant was dialyzed against distilled water, followed by lyophilization. The lyophile product was intracutaneously injected as an antigen into four foot pads of a rabbit together with Freund's complete adjuvant (Iatron; hereinafter referred to as FCA) once a week for 4 weeks for immunization. The whole blood was drawn from the immunized rabbit, and serum was separated and inactivated at 56° C. for 30 minutes to prepare NT.
In this test, ddY-strain male mice weighing 29-36 g were used. For previous immunization, 0.25 ml of an FCA emulsion containing 0.25 mg of rabbit immunoglobulin-globulin (IgG, Sigma) was intraperitoneally injected into mice. Nephritis was induced by intravenous injection of 0.075 ml of NT through the tail vein 4 and 11 days after the previous immunization. […] The supernatant was analyzed for albumin using an autoanalyzer (Olympus). […]
The results are shown in Table 7 as the means±standard error of each group consisting of 11 mice. Statistical significance was evaluated by Student's t-test.

Series [4] relates to dd-strain male mice. Description: Acute Toxicity Test. The format is in vivo. To be noted: mortality seven days after administration. As to the method: A test compound was orally or intraperitoneally administered to groups of dd-strain male mice weighing 20±1 g, each group consisting of three mice. […] The MLD was >1000 mg/kg for oral administration of Compound 10 and was >100 mg/kg for intraperitoneal administration of Compound 10.

Series [5] deals with Diabetic Nephropathy (STZ) in ddY-strain male mice. The series can be described thus: Effect on Increase of Albumin Excretion in Diabetic Nephropathy. As to conditions: for Urinary Albumin Content: mean, standard error, control 333 ± 30, normal 80 ± 3. The format is in vivo, mouse. As to the method:
In this test, ddY-strain male mice weighing 25-28 g were used. Diabetes was induced according to the method of Tsuchida, et al. [Jin To Toseki (Kidney and Dialysis), 31, 363-366 (1991)]. That is, streptozotocin (5 mg/ml, Sigma; hereinafter referred to as STZ) dissolved in 0.05 M citrate buffer was intravenously injected into mice through the tail vein at a dose of 10 ml/kg. On the fourth day after the STZ administration, 30 μl of blood was collected from the tail vein of the mice and the blood glucose was determined using Glutestsensor (Sanwa Kagaku). The animals were divided into three groups based on the blood glucose level. Twelve weeks after the STZ administration, each mouse was put into a metabolic cage and received oral administration of 0.5 ml/10 g of distilled water twice at an interval of 12 hours. Urine was collected for 24 hours, and after measurement of the volume, the urine was centrifuged under cooling (3000 rpm, 4° C. ) for 5 minutes. The supernatant was analyzed for albumin using an autoanalyzer (Olympus). A test compound was orally administered once a day for 11 weeks, starting on the fifth day after the STZ administration. The normal group and the control group received oral administration of a solvent (5% methyl cellulose solution). The results are shown in Table 8 as the means standard error of each group. Statistical significance was evaluated by Aspin-Welch's test for the difference between the control group and the normal group and by Steel's test for the difference between the control group and the test compound-administered group.

A word on the IC50: it is the midpoint of a concentration-inhibition curve. As a reminder, the Ki is the equilibrium dissociation constant of an inhibitor or competing ligand from its target.

For the compound `COc1cc2nc(N3CCC(C(=O)O)CC3)nc(N3CCC(n4c(=O)c5cc(C)ccc5n(C)c4=O)CC3)c2cc1OC` [Compound 4, 3-{1-[2-(4-Carboxypiperidino)-6,7-dimethoxy-4-quinazolinyl]-4-piperidinyl}-1,2,3,4-tetrahydro-1,6-dimethyl-2,4-dioxoquinazoline], in series [1], the IC50 stood at 0.072 µM.

For the compound `COc1cc2nc(N3CCOCC3)nc(N3CCC(n4c(=O)c5cc(C)ccc5n(C)c4=O)CC3)c2cc1OC` [Compound 1, 3-[1-(6,7-Dimethoxy-2-morpholino-4-quinazolinyl)-4-piperidinyl]-1,2,3,4-tetrahydro-1,6-dimethyl-2,4-dioxoquinazoline], in series [2], the affinity corresponds to a Ki of 0.002 µM. Also, in series [1], the IC50 amounted to 0.035 µM.

On to `COc1cc2nc(N(C)C)nc(N3CCC(n4c(=O)c5cc(C)ccc5n(C)c4=O)CC3)c2cc1OC` [Compound 5, 3-[1-(2-Dimethylamino-6,7-dimethoxy-4-quinazolinyl)-4-piperidinyl]-1,2,3,4-tetrahydro-1,6-dimethyl-2,4-dioxoquinazoline], for which the affinity in series [2] corresponds to a Ki of 0.0026 µM.

As for `COc1cc2nc(N3CCN(C)CC3)nc(N3CCC(n4c(=O)c5cc(C)ccc5n(C)c4=O)CC3)c2cc1OC` [Compound 2, 3-{1-[6,7-Dimethoxy-2-(4-methyl-1-piperazinyl)-4-quinazolinyl]-4-piperidinyl}-1,2,3,4-tetrahydro-1,6-dimethyl-2,4-dioxoquinazoline], the half-maximal inhibitory concentration (IC50) in series [1] came to 0.064 µM.

For `COc1cc2nc(N(CCO)CCO)nc(N3CCC(n4c(=O)c5cc(C)ccc5n(C)c4=O)CC3)c2cc1OC` [Compound 6, 3-{1-[2-Bis(2-hydroxyethyl)amino-6,7-dimethoxy-4-quinazolinyl]-4-piperidinyl}-1,2,3,4-tetrahydro-1,6-dimethyl-2,4-dioxoquinazoline], in series [2], the affinity corresponds to a Ki of 0.0015 µM. The IC50 in series [1] came out at 0.029 µM.

As for `CCOC(=O)C1CCN(c2nc(N3CCC(n4c(=O)c5cc(C)ccc5n(C)c4=O)CC3)c3cc(OC)c(OC)cc3n2)CC1` [Compound 3, 3-{1-[2-(4-Ethoxycarbonylpiperidino)-6,7-dimethoxy-4-quinazolinyl]-4-piperidinyl}-1,2,3,4-tetrahydro-1,6-dimethyl-2,4-dioxoquinazoline], the Ki in series [2] was 0.0076 µM. This lies in the single-digit nanomolar range.

`COc1cc2nc(N(C)CCN(C)C)nc(N3CCC(n4c(=O)c5cc(C)ccc5n(C)c4=O)CC3)c2cc1OC` [Compound 7, 3-{1-{2-[N-(2-Dimethylaminoethyl)-N-methylamino]-6,7-dimethoxy-4-quinazolinyl}-4-piperidinyl}-1,2,3,4-tetrahydro-1,6-dimethyl-2,4-dioxoquinazoline] returned a Ki in series [2] of 0.0038 µM. The IC50 in series [1] came out at 0.062 µM.

For `CCOc1cc2nc(N3CCOCC3)nc(N3CCC(n4c(=O)c5cc(C)ccc5n(C)c4=O)CC3)c2cc1OCC.Cl` [Compound 10, 3-[1-(6,7-Diethoxy-2-morpholino-4-quinazolinyl)-4-piperidinyl]-1,2,3,4-tetrahydro-1,6-dimethyl-2,4-dioxoquinazoline hydrochloride], the “Urinary Albumin Content” value is 96 ± 7 mg/kg/24 hr in series [3] (1 mg/kg oral once a day, mean ± standard error, 11 mice, control 134 ± 9, normal 85 ± 5, marked **); 244 ± 16 mg/kg/24 hr in series [5] (1 mg/kg oral once a day for 11 weeks, 10 animals, * less than 5% vs control); 200 ± 13 mg/kg/24 hr in series [5] (10 mg/kg oral once a day for 11 weeks, 9 animals, ** less than 1% vs control). The “effect on increase of urinary albumin in nephritis (in words)” value in series [3] (Masugi nephritis, mice) is “inhibits the increase of urinary albumin in nephritis”. Also, in series [4] (intraperitoneal), the “minimum lethal dose (MLD), intraperitoneal” value is on record as > 100 mg/kg. The “minimum lethal dose (MLD), oral” value in series [4] (oral) was > 1000 mg/kg. Moreover, the Ki in series [2] was determined as 0.002 µM. In series [1], the IC50 stood at 0.097 µM. Moreover, the “effect on increase of urinary albumin in diabetic nephropathy (in words)” value in series [5] (STZ diabetic nephropathy, mice) is “inhibits the increase of urinary albumin in diabetic nephropathy”.

As for `CCCNc1nc(N2CCC(n3c(=O)c4cc(C)ccc4n(C)c3=O)CC2)c2cc(OC)c(OC)cc2n1` [Compound 8, 3-[1-(6,7-Dimethoxy-2-propylamino-4-quinazolinyl)-4-piperidinyl]-1,2,3,4-tetrahydro-1,6-dimethyl-2,4-dioxoquinazoline], in series [2], the Ki is 0.0014 µM. For the same compound, in series [1], the IC50 is 0.05 µM.
